Results from US7192931B2, “Treatment of demyelinating diseases” (Neuren Pharmaceuticals Ltd., priority 2000, dated 2007).

Experiments:
Assay type in all cases: in vivo, mouse
[1] = system: apoptotic cells in spinal cord of EAE mice; assay: In situ detection of apoptotic cells in the CNS by TUNEL assay; conditions: spinal cord sections, compared to mice mock treated with PBS or rat IgG
Method: Cells undergoing apoptosis were identified using the in situ TUNEL assay. Five-μm thick serial sections of brain and spinal cord were prepared to detect apoptosis by TUNEL (i.e., terminal deoxynucleotidyl transferase-mediated deoxyuridine triphosphate-digoxigenin nick end labeling) staining using the In Situ Apoptosis Detection Kit from Boehringer Mannheim (Germany). Briefly, frozen sections were fixed in 4% paraformaldehyde, permeabilized in 0.1% Triton X-100, incubated with 20 μL TUNEL reagent for 60 minutes at 37° C., and then examined by fluorescence microscopy. Adjacent sections were counterstained with hematoxylin and mounted onto poly-L-lysine coated slides to allow the total number of nucleated cells to be counted. The percentage of apoptotic cells was assessed in ten randomly selected fields viewed at 40× magnification. The apoptotic index (AI) was calculated as follows: AI=number of apoptotic (TUNEL-positive) cells×100/total number of nucleated cells.

GluR2 = GluR2 subunit expression in spinal cord; conditions: spinal cord of EAE mice, immunohistochemistry and Western blot
[2] = system: C57Bl/6 mice with MOG35-55 peptide-induced EAE; assay: Expanded disability status scale for EAE treated mice; conditions: for Maximal disability score: Alertness / Maximal disability score: Bladder function / Maximal disability score: Eye movements / Maximal disability score: Motor (grip)* / Maximal disability score: Other signs (shine hairs and loose skin) / Maximal disability score: Sensory* Light touch / Maximal disability score: Sensory* Pain / Maximal disability score: Spontaneous mobility / Maximal disability score: Tone* / Maximal disability score: Tremor / Maximal disability score: Vision (including pupillary reflex) / Total expanded disability scale: mean values
Method: C57Bl/6 mice (8–10 week old) were injected subcutaneously in one flank with 300 μg of MOG35-55 peptide ([…]: SEQ ID NO:1) synthesized by Mimotapes Pty Ltd, Clayton, Australia and emulsified in CFA containing 500 μg of Mycobacterium tuberculosis H37Ra (DIFCO Laboratories, Detrit, USA). They also received 500 ng of pertussis toxin (List Biological Laboratories, CA, USA) in 200 μl PBS intravenously via the tail vein, followed 48 hours later by a second dose. A second injection of MOG peptide was given in the absence of pertussis toxin one week later in the opposite flank, as described previously (Kanwar et al., 2000b).
Two treatment protocols were employed, involving the treatment of early disease, versus advanced disease. For early disease, reagents were administered at day 35 (following MOG injection). Antibody was administered thrice on alternate days, whereas neuroprotectors were given daily for 6 days, where 50% of reagent was given ip and 50% iv. In the treatment of advanced disease, therapy as above was initiated at day 60, with either three or eight anti-MAdCAM-1 mAb injections, and neuroprotectors given daily for either 7 or 18 days.
The mice were monitored daily and scored according to the following scale: 0, no clinical signs of EAE; 1, limp tail; 2, partial hind limb paralysis; 3, complete hind limb paralysis; 4, complete hind limb and partial fore limb paralysis; 5, paralysis extending to diaphragm; 6, hind and fore limb paralysis; 7, death due to EAE. Paralysis extending to the diaphragm was denoted as difficulty in remaining upright. […] The daily mean clinical score for each group is the mean disease score of at least five mice. The body weight of animals was measured regularly throughout the experiments. The expanded disability status scale for EAE treated mice was scored using an earlier published scoring system (Villoslada et al. 2000).

For Gly-Pro-Glu [GPE], the “reductions in the numbers of apoptotic cells” value [1] was roughly 30%, the GluR2 expression (GluR2) was “negligible effect” and the “total scores (disability scale)” value ([2]; at day 70 as printed, 35 for rat IgG treated control mice) was 10. For the same substance, the “Maximal disability score: Alertness” value ([2]; day 55 after immunization) was 2, the “Maximal disability score: Bladder function” value ([2]; day 55 after immunization) was 0 and the “Maximal disability score: Eye movements” value ([2]; day 55 after immunization) was 1. The “Maximal disability score: Motor (grip)*” value ([2]; day 55 after immunization) was 12, the “Maximal disability score: Other signs (shine hairs and loose skin)” value (from here on “Maximal disability score: Other signs”) ([2]; day 55 after immunization) was 3 and the “Maximal disability score: Sensory* Light touch” value ([2]; day 55 after immunization) was 8. For the same substance, the “Maximal disability score: Sensory* Pain” value ([2]; day 55 after immunization) was 8, the “Maximal disability score: Spontaneous mobility” value ([2]; day 55 after immunization) was 3 and the “Maximal disability score: Tone*” value ([2]; day 55 after immunization) was 12. The “Maximal disability score: Tremor” value ([2]; day 55 after immunization) was 2, the “Maximal disability score: Vision (including pupillary reflex)” value (from here on “Maximal disability score: Vision”) ([2]; day 55 after immunization) was 1 and the “Total expanded disability scale” value ([2]; day 55 after immunization) was 52. The “Maximal disability score: Alertness” value ([2]; day 60 after immunization) was 2, the “Maximal disability score: Bladder function” value ([2]; day 60 after immunization) was 1 and the “Maximal disability score: Eye movements” value ([2]; day 60 after immunization) was 1. The “Maximal disability score: Motor (grip)*” value ([2]; day 60 after immunization) was 12, the “Maximal disability score: Other signs” value ([2]; day 60 after immunization) was 2 and the “Maximal disability score: Sensory* Light touch” value ([2]; day 60 after immunization) was 8. For the same substance, the “Maximal disability score: Sensory* Pain” value ([2]; day 60 after immunization) was 8, the “Maximal disability score: Spontaneous mobility” value ([2]; day 60 after immunization) was 3 and the “Maximal disability score: Tone*” value ([2]; day 60 after immunization) was 12. The “Maximal disability score: Tremor” value ([2]; day 60 after immunization) was 2, the “Maximal disability score: Vision” value ([2]; day 60 after immunization) was 1 and the “Total expanded disability scale” value ([2]; day 60 after immunization) was 52. For the same substance, the “Maximal disability score: Alertness” value ([2]; day 65 after immunization) was 1, the “Maximal disability score: Bladder function” value ([2]; day 65 after immunization) was 0 and the “Maximal disability score: Eye movements” value ([2]; day 65 after immunization) was 0. The “Maximal disability score: Motor (grip)*” value ([2]; day 65 after immunization) was 4, the “Maximal disability score: Other signs” value ([2]; day 65 after immunization) was 0 and the “Maximal disability score: Sensory* Light touch” value ([2]; day 65 after immunization) was 0. The “Maximal disability score: Sensory* Pain” value ([2]; day 65 after immunization) was 0, the “Maximal disability score: Spontaneous mobility” value ([2]; day 65 after immunization) was 2 and the “Maximal disability score: Tone*” value ([2]; day 65 after immunization) was 8. For the same substance, the “Maximal disability score: Tremor” value ([2]; day 65 after immunization) was 0, the “Maximal disability score: Vision” value ([2]; day 65 after immunization) was 0 and the “Total expanded disability scale” value ([2]; day 65 after immunization) was 15. For the same substance, the “Maximal disability score: Alertness” value ([2]; day 70 after immunization) was 1, the “Maximal disability score: Bladder function” value ([2]; day 70 after immunization) was 0 and the “Maximal disability score: Eye movements” value ([2]; day 70 after immunization) was 1. For the same substance, the “Maximal disability score: Motor (grip)*” value ([2]; day 70 after immunization) was 4, the “Maximal disability score: Other signs” value ([2]; day 70 after immunization) was 0 and the “Maximal disability score: Sensory* Light touch” value ([2]; day 70 after immunization) was 0. For the same substance, the “Maximal disability score: Sensory* Pain” value ([2]; day 70 after immunization) was 0, the “Maximal disability score: Spontaneous mobility” value ([2]; day 70 after immunization) was 3 and the “Maximal disability score: Tone*” value ([2]; day 70 after immunization) was 4. The “Maximal disability score: Tremor” value ([2]; day 70 after immunization) was 0, the “Maximal disability score: Vision” value ([2]; day 70 after immunization) was 0 and the “Total expanded disability scale” value ([2]; day 70 after immunization) was 13. For the same substance, the “Maximal disability score: Alertness” value ([2]; day 75 after immunization) was 1, the “Maximal disability score: Bladder function” value ([2]; day 75 after immunization) was 1 and the “Maximal disability score: Eye movements” value ([2]; day 75 after immunization) was 0. For the same substance, the “Maximal disability score: Motor (grip)*” value ([2]; day 75 after immunization) was 0, the “Maximal disability score: Other signs” value ([2]; day 75 after immunization) was 0 and the “Maximal disability score: Sensory* Light touch” value ([2]; day 75 after immunization) was 0. For the same substance, the “Maximal disability score: Sensory* Pain” value ([2]; day 75 after immunization) was 0, the “Maximal disability score: Spontaneous mobility” value ([2]; day 75 after immunization) was 3 and the “Maximal disability score: Tone*” value ([2]; day 75 after immunization) was 4. The “Maximal disability score: Tremor” value ([2]; day 75 after immunization) was 0, the “Maximal disability score: Vision” value ([2]; day 75 after immunization) was 1 and the “Total expanded disability scale” value ([2]; day 75 after immunization) was 10. For the same substance, the “Maximal disability score: Alertness” value ([2]; day 119 after immunization) was 1, the “Maximal disability score: Bladder function” value ([2]; day 119 after immunization) was 0 and the “Maximal disability score: Eye movements” value ([2]; day 119 after immunization) was 1. For the same substance, the “Maximal disability score: Motor (grip)*” value ([2]; day 119 after immunization) was 0, the “Maximal disability score: Other signs” value ([2]; day 119 after immunization) was 0 and the “Maximal disability score: Sensory* Light touch” value ([2]; day 119 after immunization) was 4. For the same substance, the “Maximal disability score: Sensory* Pain” value ([2]; day 119 after immunization) was 4, the “Maximal disability score: Spontaneous mobility” value ([2]; day 119 after immunization) was 2 and the “Maximal disability score: Tone*” value ([2]; day 119 after immunization) was 4. For the same substance, the “Maximal disability score: Tremor” value ([2]; day 119 after immunization) was 1, the “Maximal disability score: Vision” value ([2]; day 119 after immunization) was 0 and the “Total expanded disability scale” value ([2]; day 119 after immunization) was 17.
